{"source": "paper PMC10666548", "about": "“Identification of the bacterial metabolite aerugine as potential trigger of human dopaminergic neurodegeneration” (Environment international, 2023)", "key": {"[1]": {"test_system": "Neisseria gonorrhoeae MS11", "assay": "Bacterial growth assay", "assay_type": "cell-based", "conditions": "20 μM, log growth phase", "procedure": "Neisseria gonorrhoeae MS11 was cultured in PPM medium (15 g/l Proteose Pepton, 1 g/l soluble starch, 5 g/l NaCl, 4 g/l KH2PO4, 1 g/l K2HPO4, pH 7.5) for liquid culture and on GC plates (BD Difco™ GC Medium Base), both supplemented with 1 % vitamin mix (100 g/l glucose, 10 g/l glutamine, 26 g/l L-cysteine, 100 mg/l carboxylase, 250 mg/l NAD, 500 μl/l Fe(NO3)3, 150 mg/l arginine, 3 mg/l thiamine-HCl, 10 mg/l vitamine B12, 13 mg/l p-amino benzoic acid, 1.1 g/l L-cystine, 1 g/l adenine, 500 mg/l uracil, 30 mg/l guanine). Strains were either cultivated at 37 °C and 220 rpm (liquid medium) or at 37 °C and 5 % CO2 (solid medium).\nBacteria were grown as described above on solid medium. Prior to substance exposure, bacteria were pre-cultured in liquid medium for at least 2 h. Optical density was determined and a volume equal to an OD550 of 0.2 for Neisseria gonorrhoeae MS11 (equates a final OD550 of 0.04) and an OD600 of 0.2 for Enterococcus faecalis (equates a final OD600 of 0.04) was inoculated into 5 ml of the respective liquid medium. Compound was added at the indicated amounts. […] Samples were incubated for either 10.5 h, until they reached a stationary phase (three measured values in stationary phase) or until they reached an OD of 2.5. Optical density was determined every 0.5 h at OD550 for Neisseria gonorrhoeae MS11 and at OD600 for Enterococcus faecalis. […]"}, "[2]": {"test_system": "peripheral nervous system cells (iPSC-derived peripheral neurons)", "assay": "iPSC-derived neuron viability, calcein-AM & H-33342 imaging", "assay_type": "cell-based, human", "conditions": "24 h, concentrations up to 100 μM", "procedure": "The human iPSC (Sigma iPSC0028 (EPITHELIAL-1, #IPSC0028) were maintained and differentiated towards immature dorsal root ganglia neurons according to [Hoelting et al. (2016)] ([Hoelting et al., 2016]). Briefly, a total of 90,000 cells/cm^2 were seeded on Matrigel. The differentiation was initiated with neural differentiation medium (KSR-S; Dulbecco’s modified Eagle’s medium [DMEM/F12] containing 15% knockout serum replacement, 1 × Glutamax, 1 × nonessential amino acids, and 50 μM ß-mercaptoethanol) supplemented with 17.5 ng/ml noggin, 10 μM SB-431642 from day of stem cell differentiation (DoD) DoD0 to DoD5. Starting on DoD2 CHIR99021 (1.5 μM), SU5402 (5 μM) and DAPT (5 μM) were added. […]\nThe assays were performed as described previously ([Hoelting et al., 2016]; [Klima et al., 2021]; [Krug et al., 2013]). […] 24 h after treatment the Calcein/Hoechst readout was performed.\nNeurite area (NA) and viability (V) were assessed as described previously ([Stiegler et al., 2011]). […] Image acquisition was performed using an Array-Scan VTI HCS Reader (Cellomics, PA, USA) equipped with a Hamamatsu ORCA-ER camera. […]"}, "LUHMES neurons": {"test_system": "LUHMES neurons", "assay": "LDH-release and resazurin reduction tests on d6 LUHMES", "assay_type": "cell-based, human", "conditions": "24 h", "procedure": "The assay was performed as described earlier ([Latta et al., 2000]). In brief, supernatants were transferred to an un-coated 96-wellplate and cells were lysed in 110 μl of phosphate buffered saline (PBS) with 0.1% Triton-X100 for 1 h at room temperature. Lactate dehydrogenase (LDH) activity was assessed in the supernatant and the cell lysate individually by combining 10 μl sample with 100 μl potassium phosphate buffer pH 7.5 containing 640 μM pyruvate and […] NADH. NADH was quantified by measuring the absorption at 340 nm over 15 min and its decline was proportional to the LDH content. LDH release was calculated as the ratio of LDHsupernatant/LDHsupernatant+lysate.\nThe assay was performed as described previously ([Schildknecht et al., 2009]). In brief, cells were stained with 10 μg/ml resazurin and incubated for 30 min at 37 °C and 5% CO2. The fluorescence of resazurin was detected with an excitation wavelength of 530 nm, using a 590 nm long-pass filter to record the emission. […]\nSupplementary Figure S7: Viability endpoints measured on d6 LUHMES treated with aerugine Cultures of differentiated LUHMES neurons were exposed on d6 to serial dilutions of aerugine for 24 h. The cell viability (V), neurite area (NA) were assessed 24 h later by calcein-AM & H-33342 staining and high content imaging. Resazurin reduction and LDH release were measured subsequently. […]"}}, "data": [{"smiles": "OCC1CSC(c2ccccc2O)=N1", "note": "(stereo not drawn) [aerugine, 2-[4-(hydroxymethyl)-4,5-dihydro-1,3-thiazol-2-yl]phenol]", "values": [{"measurement": "viability or growth", "setting": "[1]", "result": "not affected in viability or growth"}, {"measurement": "effect on cell viability", "setting": "[2]", "result": "no effect"}, {"measurement": "LDH-release and resazurin reduction viability", "setting": "LUHMES neurons", "result": "confirmed the single cell data, although with slightly less sensitivity"}]}]}
